Results from ChEMBL document CHEMBL1201862, “PubChem BioAssay data set” (2004).
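Interpolation was linear, between the two tested concentrations surrounding the appropriate level; five concentrations were tested over 48 hours in 96-well plates. GI50: concentration for 50% inhibition of growth.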 The source made the active and inactive calls. No stated cut-off is given here; in the data, active = GI50 up to about 1.1 µM and inactive = higher.

Key:
Test in all cases: inhibition of tumour cell growth, NCI panel, 48 h
[1] = test system: CCRF-CEM
[2] = test system: K562
[3] = test system: OVCAR-3
[4] = test system: SNB-75
[5] = test system: SW-620
[6] = test system: NCI-H522
[7] = test system: SK-OV-3
[8] = test system: SNB-19
[9] = test system: MDA-MB-435
[10] = test system: COLO 205
[11] = test system: TK-10
[12] = test system: RPMI-8226
[13] = test system: NCI-H460
[14] = test system: MOLT-4
[15] = test system: MDA-N
[16] = test system: HCT-15
[17] = test system: DU-145
[18] = test system: 786-0
[19] = test system: UACC-257
[20] = test system: SR
[21] = test system: CAKI-1
[22] = test system: MDA-MB-231
[23] = test system: SF-295
[24] = test system: RXF 393
[25] = test system: IGROV-1
[26] = test system: BT-549
[27] = test system: A498
[28] = test system: ACHN
[29] = test system: NCI/ADR-RES
[30] = test system: EKVX
[31] = test system: LOX IMVI
[32] = test system: HOP-92
[33] = test system: U-251
[34] = test system: PC-3
[35] = test system: HCT-116
[36] = test system: A549
[37] = test system: NCI-H226
[38] = test system: HT-29
[39] = test system: SK-MEL-2
[40] = test system: HL-60
[41] = test system: SN12C
[42] = test system: UO-31
[43] = test system: Malme-3M
[44] = test system: MCF7
[45] = test system: OVCAR-8
[46] = test system: HOP-62
[47] = test system: Hs-578T
[48] = test system: UACC-62
[49] = test system: T47D
[50] = test system: M14
[51] = test system: NCI-H23
[52] = test system: SF-268
[53] = test system: SF-539
[54] = test system: OVCAR-5
[55] = test system: SK-MEL-28
[56] = test system: KM12
[57] = test system: OVCAR-4
[58] = test system: SK-MEL-5
[59] = test system: HCC 2998

Measured: GI50

O=C(O)CN1C(=O)OC(c2ccccc2)C1=O (configuration not stated)
inactive: [1] > 100 µM | [2] > 100 µM | [3] > 100 µM | [4] > 100 µM | [5] > 100 µM | [6] > 100 µM | [7] > 100 µM | [8] > 100 µM | [9] > 100 µM | [10] > 100 µM | [11] > 100 µM | [12] > 100 µM | [13] > 100 µM | [14] > 100 µM | [15] > 100 µM | [17] > 100 µM | [18] > 100 µM | [19] > 100 µM | [20] > 100 µM | [21] > 100 µM | [22] > 100 µM | [23] > 100 µM | [24] > 100 µM | [25] > 100 µM | [26] > 100 µM | [27] > 100 µM | [28] > 100 µM | [29] > 100 µM | [30] > 100 µM | [31] > 100 µM | [32] > 100 µM | [33] > 100 µM | [34] > 100 µM | [35] > 100 µM | [36] > 100 µM | [37] > 100 µM | [38] > 100 µM | [39] > 100 µM | [40] > 100 µM | [41] > 100 µM | [42] > 100 µM | [43] > 100 µM | [44] > 100 µM | [45] > 100 µM | [46] > 100 µM | [47] > 100 µM | [48] > 100 µM | [49] > 100 µM | [50] > 100 µM | [51] > 100 µM | [52] > 100 µM | [53] > 100 µM | [54] > 100 µM | [55] > 100 µM | [56] > 100 µM | [57] > 100 µM | [58] > 100 µM
> 100 µM: [16]

O=c1cccccc1O [TROPOLONE]
inactive: [1] 17.4 µM | [2] 35.3 µM | [3] 34 µM | [4] > 100 µM | [5] 45.5 µM | [6] 33.3 µM | [7] > 100 µM | [8] > 100 µM | [9] > 100 µM | [10] 39.6 µM | [11] 83.9 µM | [12] 86.9 µM | [13] 26.5 µM | [59] 79.8 µM | [14] 26.9 µM | [15] > 100 µM | [17] > 100 µM | [18] 55.3 µM | [19] > 100 µM | [20] 46.7 µM | [21] 83.6 µM | [22] > 100 µM | [23] 93.3 µM | [24] 26.5 µM | [25] > 100 µM | [26] 87.1 µM | [28] > 100 µM | [29] 39.6 µM | [30] > 100 µM | [31] 34.7 µM | [32] > 100 µM | [34] 83.4 µM | [35] 32 µM | [36] > 100 µM | [37] > 100 µM | [38] 41.8 µM | [39] > 100 µM | [40] 11.9 µM | [42] 80.2 µM | [43] > 100 µM | [44] 44 µM | [45] 32.9 µM | [47] 91.8 µM | [48] 96.6 µM | [49] 52.8 µM | [50] > 100 µM | [51] > 100 µM | [52] 35.7 µM | [54] > 100 µM | [55] > 100 µM | [56] > 100 µM | [57] 94 µM | [58] 83 µM
34 µM: [16]
